The values that follow come from BindingDB's records for doi:10.1007/pl00005315 (Eli Lilly, 1999).

The target in experiment [1] is T1, 5-hydroxytryptamine receptor 2C (Homo sapiens, UniProt P28335).
T1 sequence (P28335 whole entry): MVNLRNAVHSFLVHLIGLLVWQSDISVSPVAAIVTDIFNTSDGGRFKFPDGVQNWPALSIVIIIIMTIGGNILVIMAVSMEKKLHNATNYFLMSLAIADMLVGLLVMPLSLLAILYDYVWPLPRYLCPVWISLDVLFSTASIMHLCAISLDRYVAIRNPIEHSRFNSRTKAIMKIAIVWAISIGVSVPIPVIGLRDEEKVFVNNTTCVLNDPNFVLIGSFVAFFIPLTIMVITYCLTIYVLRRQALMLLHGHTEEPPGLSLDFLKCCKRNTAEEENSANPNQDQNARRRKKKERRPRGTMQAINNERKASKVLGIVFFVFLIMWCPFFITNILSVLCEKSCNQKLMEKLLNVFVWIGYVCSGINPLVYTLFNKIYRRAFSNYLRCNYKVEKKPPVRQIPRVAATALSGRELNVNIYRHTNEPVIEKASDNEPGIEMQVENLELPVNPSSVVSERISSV

The target of experiment [2] is 5-hydroxytryptamine receptor 2A (Homo sapiens, UniProt P28223).
5-hydroxytryptamine receptor 2A, sequence (P28223 whole entry): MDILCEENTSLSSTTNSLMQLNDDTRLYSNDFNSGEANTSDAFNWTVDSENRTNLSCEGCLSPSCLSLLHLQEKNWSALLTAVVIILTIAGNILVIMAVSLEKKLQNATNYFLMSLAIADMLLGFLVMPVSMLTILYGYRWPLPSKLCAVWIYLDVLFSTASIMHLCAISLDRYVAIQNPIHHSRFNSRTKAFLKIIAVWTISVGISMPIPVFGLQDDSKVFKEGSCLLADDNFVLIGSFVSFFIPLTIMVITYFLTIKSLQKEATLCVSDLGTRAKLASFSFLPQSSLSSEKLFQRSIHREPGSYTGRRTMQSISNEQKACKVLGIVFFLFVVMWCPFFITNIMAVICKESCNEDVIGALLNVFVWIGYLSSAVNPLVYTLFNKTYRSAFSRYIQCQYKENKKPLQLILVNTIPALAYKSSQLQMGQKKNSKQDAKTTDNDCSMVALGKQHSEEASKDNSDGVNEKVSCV
Experiment [3] addresses 5-hydroxytryptamine receptor 2B (Rattus norvegicus, UniProt P30994).
Experiment [4] has as its target 5-hydroxytryptamine receptor 2B (Homo sapiens, UniProt P41595).

Structures are written as SMILES.

5-hydroxytryptamine receptor 2B (Homo sapiens, UniProt P41595), sequence (P41595 whole entry): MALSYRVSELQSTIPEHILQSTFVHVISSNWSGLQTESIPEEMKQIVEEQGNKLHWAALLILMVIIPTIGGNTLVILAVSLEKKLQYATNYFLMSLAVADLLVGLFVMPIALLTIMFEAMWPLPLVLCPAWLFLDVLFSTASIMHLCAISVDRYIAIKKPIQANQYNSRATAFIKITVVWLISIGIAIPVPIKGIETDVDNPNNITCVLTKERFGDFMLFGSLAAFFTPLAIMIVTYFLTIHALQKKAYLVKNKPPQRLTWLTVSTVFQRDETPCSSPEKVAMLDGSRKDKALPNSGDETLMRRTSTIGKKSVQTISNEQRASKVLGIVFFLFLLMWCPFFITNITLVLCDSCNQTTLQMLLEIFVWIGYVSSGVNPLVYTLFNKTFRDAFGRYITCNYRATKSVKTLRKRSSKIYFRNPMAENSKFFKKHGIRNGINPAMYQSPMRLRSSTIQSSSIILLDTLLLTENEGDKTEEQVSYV
5-hydroxytryptamine receptor 2B (Rattus norvegicus, UniProt P30994), sequence (P30994 whole entry): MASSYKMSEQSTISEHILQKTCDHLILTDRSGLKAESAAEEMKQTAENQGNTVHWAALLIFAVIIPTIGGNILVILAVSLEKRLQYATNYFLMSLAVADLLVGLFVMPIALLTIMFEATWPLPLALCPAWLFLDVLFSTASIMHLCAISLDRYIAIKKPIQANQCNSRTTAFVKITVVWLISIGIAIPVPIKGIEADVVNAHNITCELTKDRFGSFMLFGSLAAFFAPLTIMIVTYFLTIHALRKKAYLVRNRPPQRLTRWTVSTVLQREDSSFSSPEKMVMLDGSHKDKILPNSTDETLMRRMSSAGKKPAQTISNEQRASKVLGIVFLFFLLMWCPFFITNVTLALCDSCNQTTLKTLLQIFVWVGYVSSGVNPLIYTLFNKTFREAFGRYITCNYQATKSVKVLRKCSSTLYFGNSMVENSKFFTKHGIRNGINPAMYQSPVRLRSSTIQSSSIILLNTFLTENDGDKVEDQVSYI

As usually defined, the Ki is the equilibrium dissociation constant of an inhibitor or competing ligand from its target. High values mean lower affinity, low ones higher affinity. As to `COc1cc(CC(C)N)c(OC)cc1F` (configuration not stated), the Ki in experiment [1] is 28.7 nM; in experiment [2], 41.7 nM; in experiment [3], 306 nM; in experiment [4], 227 nM.

`CCCc1cc(OC)c(CC(C)N)cc1OC` (configuration not stated) [2-(2,5-Dimethoxy-4-propyl-phenyl)-1-methyl-ethylamine(DOPR)]: the inhibitory constant (Ki) was 1.1 nM in experiment [1], 0.9 nM in experiment [2], 115 nM in experiment [3] and 54.4 nM in experiment [4].

As to `C[C@]12CC[C@H]3[C@@H](CCC4=CC(=O)CC[C@@]43C)[C@@H]1CC[C@@H]2C(=O)CO` [(1S,2R,10S,11S,14S,15S)-14-(2-hydroxyacetyl)-2,15-dimethyltetracyclo[8.7.0.0^{2,7}.0^{11,15}]heptadec-6-en-5-one], the Ki in experiment [1] was 2 nM; in experiment [2], 1.4 nM; in experiment [3], 26.8 nM; in experiment [4], 31.8 nM.

Regarding `COc1cc(CC(C)N)c(OC)cc1Cc1ccccc1` (configuration not stated), the Ki in experiment [1] came out at 1 nM; in experiment [2] it was 0.4 nM; in experiment [3], 53.8 nM; in experiment [4], 35 nM.

For the compound `COc1ccc(OC)c(CC(C)N)c1` (configuration not stated) [2-(2,5-Dimethoxy-phenyl)-1-methyl-ethylamine], the inhibitory constant (Ki) in experiment [1] is 104 nM; in experiment [4] it was 1040 nM.

With `COc1cc(CC(C)N)cc(OC)c1OC` (configuration not stated), the Ki was found to be 57.9 nM in experiment [2], 187 nM in experiment [3] and 307 nM in experiment [4].

Turning to `COc1cc(CC(C)[N+](C)(C)C)c(OC)cc1Br` (configuration not stated) [N,N,N-trimethyl-1-(4-bromo-2,5-dimethoxyphenyl)-2-aminopropane], the Ki in experiment [1] is 6300 nM; in experiment [2], 2150 nM; in experiment [3], over 10000 nM; in experiment [4], over 10000 nM.

For the compound `COc1cc(CC(C)N)c(OC)cc1C#N` (configuration not stated), the Ki was 1010 nM in experiment [1], 45.7 nM in experiment [2], 877 nM in experiment [3] and 774 nM in experiment [4].

Regarding `COc1cc([N+](=O)[O-])c(OC)cc1CC(C)N` (configuration not stated) [DON], the inhibitory constant (Ki) in experiment [1] stood at 22.4 nM; in experiment [2], 5.5 nM; in experiment [3], 248 nM; in experiment [4], 166 nM.

Take `COc1cc(C(C)(C)C)c(OC)cc1CC(C)N` (configuration not stated) [DOTB]: the Ki in experiment [1] worked out at 2.2 nM; in experiment [2], 3.7 nM; in experiment [3], 49.6 nM; in experiment [4], 24.6 nM.

Take `CCCCCCc1cc(OC)c(CC(C)N)cc1OC` (configuration not stated) [DOHx]: the Ki in experiment [1] was 0.7 nM; in experiment [2], 0.1 nM; in experiment [3] it was 49 nM; in experiment [4] it was 30.3 nM.

Turning to `COc1cc(CC(C)N(C)C)c(OC)cc1Br` (configuration not stated) [M-154], the Ki in experiment [1] amounted to 68.1 nM; in experiment [2], 94.2 nM; in experiment [3], 683 nM; in experiment [4] it was 341 nM.

Take `COCCOCCl` [CAS_3970-21-6]: the inhibition constant Ki in experiment [1] came to 124 nM; in experiment [2], 73 nM; in experiment [3], 1130 nM; in experiment [4] it was 763 nM.

Compound `COc1cc(CC(C)N)c(OC)cc1Br` (stereo not drawn) [2-(4-Bromo-2,5-dimethoxy-phenyl)-1-methyl-ethylamine((-)-DOB)] gave a Ki in experiment [4] of 26.9 nM. That is a double-digit nanomolar value.

On to `CCCNC(C)Cc1cc(OC)c(Br)cc1OC` (configuration not stated), for which the Ki amounted to 514 nM in experiment [1], 976 nM in experiment [3] and 521 nM in experiment [4].

`COc1cc(C(C)=O)c(OC)cc1CC(C)N` (configuration not stated) [1-(4-acetyl-2,5-dimethoxyphenyl)-2-aminopropane]: the Ki in experiment [1] was determined as 91.3 nM; in experiment [2] it was 80.5 nM; in experiment [3] it was 947 nM; in experiment [4], 313 nM.
